molecular target: T1, human Nav1.1 (Homo sapiens, UniProt P35498); test: Amplification of Nav1.1-derived voltage-gated sodium current (Nav1.1 current), automated patch clamp (Test 1); type: cell-based; conditions: Concentration for evaluation 1 μM; HEK293 cell line stably expressing human Nav1.1
T1 construct: host or cells: HEK293
Outline: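 Compound-induced change in ramp-evoked sodium current peak and AUC was expressed as 100×post/pre ratio minus 100. Recordings used automated patch clamp in voltage-clamp mode on a stable human Nav1.1 HEK293 line, including only cells above 500 pA. Compounds were delivered in extracellular fluid containing 1% DMSO.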

SMILES | Nav1.1 current amplification rate (%)
CC1CC=C(c2ccc(=O)n(CC(=O)N3CCc4c(CNC5CCC5)cccc43)n2)CC1 (centres unmarked) [Example 315] | 19
CN(c1cnc2cnn(CC(=O)Nc3ccc(C#N)nc3)c2n1)C1CCCC1 [Example 683] | 63
CN(c1cnc2cnn(CC(=O)Nc3cnc4ccccc4c3)c2n1)C1CC1 [Example 719] | 78
COCCN(C)Cc1cccc2c1CCN2C(=O)Cn1nc(C2=CCC(C)CC2)ccc1=O (centres unmarked) [Example 275] | 46
CC1CC=C(c2ccc(=O)n(CC(=O)Nc3cncc(C4=CCOC4)c3)n2)CC1 (centres unmarked) [Example 381] | 153
CN(c1cnc2cnn(CC(=O)Nc3ccc4ccncc4c3)c2n1)C1CC1 [Example 732] | 152
CC1CC=C(c2ccc(=O)n(CC(=O)N3CC=C(c4ccncc4)CC3)n2)CC1 (centres unmarked) [Example 419] | 66
CC1CC=C(c2ccc(=O)n(CC(=O)N3CCc4c(CNC5CCOC5)cccc43)n2)CC1 (centres unmarked) [Example 316] | 81
CN(c1cnc2cnn(CC(=O)Nc3ccc(-n4ccnc4)nc3)c2n1)C1CCCC1 [Example 682] | 53
CC1CC=C(c2ccc(=O)n(CC(=O)N3CCc4c3ccnc4C3=CCOCC3)n2)CC1 (centres unmarked) [Example 296] | 87
CN(c1cnc2cnn(CC(=O)Nc3ccc4ncncc4c3)c2n1)C1CC1 [Example 728] | 71
CC1CC=C(c2ccc(=O)n(CC(=O)N3CC=C(c4ccncc4)C3)n2)CC1 (centres unmarked) [Example 387] | 19
CN(CC1CCCC1)c1cnc2cnn(CC(=O)Nc3ccn4ncnc4c3)c2n1 [Example 626] | 200
CC1CC=C(c2ccc(=O)n(CC(=O)Nc3cncc(C4=CCN(C)C4)c3)n2)CC1 (centres unmarked) [Example 367] | 38
O=C(Cn1ncc2ncc(C3=CCC4(CC3)CC4(F)F)nc21)Nc1ccc2ncnn2c1 (centres unmarked) [Example 660] | 64
CN(c1cnc2cnn(CC(=O)N3CCc4c(-c5ccncc5)cccc43)c2n1)C1CCC1 [Example 689] | 286
CN(c1cnc2cnn(CC(=O)Nc3cccc(N4CCOCC4)c3F)c2n1)C1CCCC1 [Example 671] | 34

same assay, conditions: Concentration for evaluation 3 μM; HEK293 cell line stably expressing human Nav1.1

SMILES | Nav1.1 current amplification rate (%)
CC1CC=C(c2ccc(=O)n(CC(=O)N3CCc4c(C5=CCNC5)cccc43)n2)CC1 (centres unmarked) [Example 265] | 110
CC1CC=C(c2ccc(=O)n(CC(=O)Nc3ccc4oc(CN(C)C)nc4c3)n2)CC1 (centres unmarked) [Example 324] | 50
CC1CC=C(c2ccc(=O)n(CC(=O)Nc3cccc(N4CCOCC4)c3F)n2)CC1 (centres unmarked) [Example 322] | 115
CC1CC=C(c2ccc(=O)n(CC(=O)N3CCc4c(C5CNC5)cccc43)n2)CC1 (centres unmarked) [Example 299] | 6
CC1CC=C(c2ccc(=O)n(CC(=O)N3CCc4c(-c5ccnn5C)cccc43)n2)CC1 (centres unmarked) [Example 251] | 307
CC1CC=C(c2ccc(=O)n(CC(=O)N3CCc4c(C5CCNC5)cccc43)n2)CC1 (centres unmarked) [Example 268] | 55

same assay, conditions: Concentration for evaluation 10 μM; HEK293 cell line stably expressing human Nav1.1

SMILES | Nav1.1 current amplification rate (%)
CC1CCN(c2ccc(=O)n(CC(=O)Nc3ccc4oc(=O)[nH]c4c3)n2)CC1 [Example 82] | 121
COc1cc(C2=CCC(C(F)(F)F)CC2)nn(CC(=O)N2CCN(c3cncc(F)c3)CC2)c1=O (centres unmarked) [Example 482] | 219
CC1CCCN(c2ccc(=O)n(CC(=O)Nc3ccc(C#N)cc3)n2)C1 (centres unmarked) [Example 13] | 76
CC1CC=C(c2ccc(=O)n(CC(=O)Nc3ccn4cc(C(F)(F)F)nc4c3)n2)CC1 (racemic) [Example 421] | 199
N#Cc1ccc(NC(=O)Cn2nc(N3CCC4(CCCO4)CC3)ccc2=O)cc1 [Example 29] | 20
COc1cncc(NC(=O)Cn2nc(N3CCC(C)CC3)ccc2=O)c1 [Example 64] | 11
CC1CCN(c2ccc(=O)n(CC(=O)Nc3cncc(C#N)c3)n2)CC1 [Example 60] | 57
O=C(Cn1nc(C2=CCC(F)(F)CC2)ccc1=O)Nc1ccn2ccnc2c1 [Example 464] | 18
COC1CCN(c2ccc(=O)n(CC(=O)Nc3ccc(C#N)cc3)n2)CC1 [Example 9] | 11
CCCCN(C)c1ccc(=O)n(CC(=O)Nc2ccc(C#N)cc2)n1 [Example 30] | 77
Cc1noc2ccc(NC(=O)Cn3nc(C4=CCC(C)CC4)ccc3=O)cc12 (racemic) [Example 423] | 11
CC1CCN(c2ccc(=O)n(CC(=O)Nc3cc(Cl)c4ocnc4c3)n2)CC1 [Example 94] | 198
N#Cc1ccc(NC(=O)Cn2nc(N3CCC(F)(F)CC3)ccc2=O)cc1 [Example 5] | 6
CC1CCN(c2ccc(=O)n(CC(=O)Nc3cncc(Cl)c3)n2)CC1 [Example 63] | 49
N#Cc1ccc(NC(=O)Cn2nc(N3CCCCCC3)ccc2=O)cc1 [Example 11] | 205
CC1CC=C(c2ccc(=O)n(CC(=O)N3CCN(c4cncc(F)c4)CC3)n2)C1 (centres unmarked) [Example 484] | 224
O=C(Cn1nc(C2=CCC(C(F)(F)F)CC2)ccc1=O)N1CCN(c2cncc(F)c2)CC1 (centres unmarked) [Example 487] | 190
CC1(C)CC=C(c2ccc(=O)n(CC(=O)Nc3ccc4c(c3)OCC4)n2)CC1 [Example 426] | 244
CN(c1cnc2cnn(CC(=O)Nc3cc4cccnc4cn3)c2n1)C1CC1 [Example 729] | 55
COc1cccc2c1CCN2C(=O)Cn1nc(C2=CCC(C)(C)CC2)ccc1=O [Example 431] | 11
Cc1nc2cc(NC(=O)Cn3nc(N4CCC(C)CC4)ccc3=O)ccc2s1 [Example 88] | 183
CC1CCN(c2ccc(=O)n(CC(=O)Nc3ccc4cnn(C)c4c3)n2)CC1 [Example 83] | 45
CN1CCN(c2cccc3c2CCN3C(=O)Cn2nc(C3=CCC(C)(C)CC3)ccc2=O)CC1 [Example 433] | 192
CC1(C)CCC=C(c2ccc(=O)n(CC(=O)Nc3ccc(C#N)cc3)n2)C1 [Example 45] | 202
CN(c1cnc2cnn(CC(=O)Nc3ccc4ncccc4n3)c2n1)C1CC1 [Example 725] | 51
CC1CC=C(c2ccc(=O)n(CC(=O)NC3CCN(c4ccccc4)CC3)n2)CC1 (centres unmarked) [Example 368] | 18

same assay, conditions: Concentration for evaluation 50 μM; HEK293 cell line stably expressing human Nav1.1

SMILES | Nav1.1 current amplification rate (%)
CC1CC=C(c2ccc(=O)n(CC(=O)N3CCc4c(-c5cc[nH]n5)ccnc43)n2)CC1 (centres unmarked) [Example 291] | 212

same assay, conditions: HEK293, Concentration for evaluation 1 μM; HEK293 cell line stably expressing human Nav1.1; read-out: Nav1.1 current amplification rate (%)

SMILES | activation at 1 µM [%]
CC(C)CN(C)c1cnc2cnn(CC(=O)Nc3ccn4ncnc4c3)c2n1 [Example 573, 2-{6-[Methyl(2-methylpropyl)amino]-1H-pyrazolo[3,4-b]pyrazin-1-yl}-N-([1,2,4]triazolo[1,5-a]pyridin-7-yl) acetamide] | 44
O=C(Cn1ncc2ncc(N3CCC4(CC4)C(F)(F)C3)nc21)Nc1ccc(-n2ccnc2)nc1 [Example 747] | 73

same assay, conditions: HEK293, Concentration for evaluation 10 μM; HEK293 cell line stably expressing human Nav1.1; read-out: Nav1.1 current amplification rate (%)

SMILES | activation at 10 µM [%]
N#Cc1ccc(NC(=O)Cn2nc(N3CCCCC3)ccc2=O)cn1 [Example 110] | 12

same assay, conditions: HEK293, concentration for evaluation 1 μM; HEK293 stably expressing human Nav1.1; read-out: Nav1.1 current amplification rate (%)

SMILES | activation at 1 µM [%]
CC1CC=C(c2ccc3cnn(CC(=O)N4CCc5c(N6CCOCC6)cccc54)c3n2)CC1 (centres unmarked) [Example 882] | 88
CN(c1ncc2cnn(CC(=O)Nc3cnc4cccnc4c3)c2n1)C1CC2(CC2)C1 [Example 842] | 87
Cc1cc(NC(=O)Cn2ncc3cnc(N(C)C4CCCC4)nc32)cc2ncnn12 [Example 837] | 103
Cc1cc(NC(=O)Cn2ncc3ccc(N(C)C4CC4)nc32)cc2ncnn12 [Example 886] | 125
CC1CC=C(c2ccc3cnn(CC(=O)N4CCN(c5cccnc5)CC4)c3n2)CC1 (centres unmarked) [Example 881] | 446

same assay, conditions: HEK293, concentration for evaluation 50 μM; HEK293 stably expressing human Nav1.1; read-out: Nav1.1 current amplification rate (%)

SMILES | activation at 50 µM [%]
CC1CCN(c2ncc3cnn(CC(=O)N4CCN(c5cccnc5)CC4)c3n2)CC1 [Example 835] | 118

same assay, conditions: concentration for evaluation 1 μM; HEK293 stably expressing human Nav1.1

SMILES | Nav1.1 current amplification rate (%)
CN(CC1CC1)c1ncc2cnn(CC(=O)Nc3ccn4ncnc4c3)c2n1 [Example 800] | 55
O=C(Cn1ncc2ccc(C3=CCCCO3)nc21)Nc1ccn2ccnc2c1 [Example 868] | 19
O=C(Cn1ncc2ccc(N3CCC4(CC3)CC4)nc21)Nc1ccn2ncnc2c1 [Example 855] | 93
CN(CC1CCC1)c1ncc2cnn(CC(=O)Nc3ccn4ncnc4c3)c2n1 [Example 798] | 193
CN(CC1CCC1)c1ccc2cnn(CC(=O)Nc3ccc4ncnn4c3)c2n1 [Example 873] | 89
O=C(Cn1ncc2cnc(N3CCC4(CCC4)CC3)nc21)Nc1ccc2cncnc2c1 [Example 808] | 226
CC1(C)CCN(c2ccc3cnn(CC(=O)Nc4ccn5ncnc5c4)c3n2)C1 [Example 857] | 18
O=C(Cn1ncc2ccc(-c3ccc(F)cc3F)nc21)Nc1ccc2ncnn2c1 [Example 871] | 10
O=C(Cn1ncc2ccc(-c3ccc(F)cc3F)nc21)Nc1ccn2ccnc2c1 [Example 865] | 14
